# Measurements taken from patent US20120238520A1, “Novel Medical Use” (priority 2009, published 2012).
# Counter-ions that a name gives are not always drawn.
# Assays:
# Assay type in all cases: in vivo, rat
# HCl-instilled rats = test: HCl (acid aspiration, chemical injury) model of acute lung injury in anesthetized, ventilated rats; details: rats 2 h after intratracheal HCl pH 1.5, vs HCl alone
# From the text: (§1) The preparation of anesthetized, ventilated rats was used to carry out the below described examples. Techniques of the below described examples have been published (Frank J A, Gutierrez J A, Jones K D, et al.: Low tidal volume reduces epithelial and endothelial injury in acid-injured rat lungs. Am. J. Respir. Crit. Care Med. 165:242-249, 2002; Folkesson H G, Nitenberg G, Oliver B L, et al.: Upregulation of alveolar epithelial fluid transport after subacute lung injury in rats from bleomycin. Am. J. Physiol. 275:L478-490, 1998; Folkesson H G, Norlin A, Wang Y, et al., Dexamethasone and thyroid hormone pretreatment upregulate alveolar epithelial fluid clearance in adult rats. J. Appl. Physiol. 88: 416-424, 2000; and Norlin A, Lu L N, Guggino S E, et al., Contribution of amiloride-insensitive pathways to alveolar fluid clearance in adult rats. J. Appl. Physiol. 90: 1489-1496, 2001).
# The methods used are published in the above given references. […]
# To evaluate the effect of HCl (chemical injury; a model of aspiration-induced acute lung injury), HCl at pH 1.5 was used (FIG. 1, bottom panel illustrates the time scheme used for HCl treatments). […] Blood was sampled for fluorescence and arterial blood gas measurements every 30 min throughout the experiment. […]
# LPS-instilled rats = test: LPS (endotoxin, biochemical injury) model of sepsis-induced acute lung injury in anesthetized, ventilated rats; details: rats 16 h after intratracheal LPS 5 mg/kg body wt, vs LPS alone
# From the text: as §1, with “2001). […]” for “2001).”
# To evaluate the effect of endotoxin (biochemical injury; a model of sepsis-induced acute lung injury), E. coli LPS at the concentration of 5 mg/kg body wt was given intratracheally (FIG. 1, top panel illustrates the time scheme used for LPS treatments). […] Blood was sampled for fluorescence and arterial blood gas measurements every 30 min throughout the experiment. […] Alveolar fluid clearance, extravascular lung water, and endothelial-epithelial barrier leak were determined.
# [1] = test system: live E. coli-instilled rats; test: Live E. coli DH5α (biological injury) model of sepsis-induced acute lung injury in anesthetized, ventilated rats; details: rats 3 h after intratracheal live E. coli DH5α, vs E. coli alone
# Method: The preparation of anesthetized, ventilated rats was used to carry out the below described examples. […]
# To evaluate the effect of live E. coli (biological injury; a model of sepsis-induced acute lung injury), E. coli (serotype DH5α at the concentration of 10^8 cfu/ml was given intratracheally (FIG. 2). Rats were surgically prepared (anesthetized, tracheotomized, outfitted with a carotid artery catheter, and connected to a ventilator). The rats were ventilated for a 30 min baseline of stable blood gases. An instillation catheter was passed to rest just above the bronchial carina and 1 ml/kg body wt of the solution containing 10^8 cfu/ml E. coli DH5α was rapidly instilled into the lungs. The vascular tracer (FITC-labeled albumin) was given after 15 min stabilization time and the 5% albumin solution with and without (2R,3R,4S,5R)-2-(6-amino-2-{[(1S)-2-hydroxy-1-(phenylmethyl)ethyl]amino}-9H-purin-9-yl)-5-(2-ethyl-2H-tetrazol-5-yl)tetrahydro-3,4-furandiol maleate was instilled 2 h later into the distal airspaces of the lung. Blood was sampled for fluorescence and arterial blood gas measurements every 30 min throughout the experiment. […] Alveolar fluid clearance, extravascular lung water, and endothelial-epithelial barrier leak were determined.
# rats = test: Test solution instilled into airspaces of anesthetized, ventilated rats without injury-inducing agent; details: compound by itself, 10^−4 M in 5% albumin instilled into airspaces, any experimental group
# From the text: as §1
# The methods used are published in the above given references. A test solution of 5% albumin with and without […] (2R,3R,4S,5R)-2-(6-amino-2-{[(1S)-2-hydroxy-1-(phenylmethyl)ethyl]amino}-9H-purin-9-yl)-5-(2-ethyl-2H-tetrazol-5-yl)tetrahydro-3,4-furandiol maleate dissolved in 0.9% NaCl was used and instilled into the airspaces of rats to measure alveolar fluid clearance with and without the injury-inducing agent (HCl, LPS, or E. coil, see below for details). […]
smiles,measurement,setting,value
"CCn1nnc([C@H]2O[C@@H](n3cnc4c(N)nc(N[C@H](CO)Cc5ccccc5)nc43)[C@H](O)[C@@H]2O)n1 [(2R,3R,4S,5R)-2-(6-amino-2-{[(1S)-2-hydroxy-1-(phenylmethyl)ethyl]amino}-9H-purin-9-yl)-5-(2-ethyl-2H-tetrazol-5-yl)tetrahydro-3,4-furandiol maleate]",EVLW (extravascular lung water),"HCl-instilled rats; 10^−4 M compound in 5% albumin instilled into airspaces, FIG. 3 left","a reduction in EVLW was observed, albeit EVLW remained elevated"
same,ELW (excess lung water) reduced by,"HCl-instilled rats; 10^−4 M compound instilled, ELW remained elevated compared to control, FIG. 4 left",~20%
same,EVLW (extravascular lung water),"LPS-instilled rats; 10^−4 M compound in 5% albumin instilled into airspaces, FIG. 3 center",a reduction in EVLW was observed
same,ELW (excess lung water) reduced by,"LPS-instilled rats; 10^−4 M compound instilled, FIG. 4 center",~40%
same,EVLW (extravascular lung water),"[1]; 10^−4 M compound in 5% albumin instilled into airspaces, FIG. 3 right",a reduction in EVLW was observed
same,ELW (excess lung water) reduced by,"[1]; 10^−4 M compound instilled, FIG. 4 right",~40%
same,edema formation measured as increased EVLW (extravascular lung water),rats,believed not to result in edema formation
